Experimental data published in ChEMBL document CHEMBL2086254, “Synthesis and identification of novel indolo[2,3-a]pyrimido[5,4-c]carbazoles as a new class of anti-cancer agents” (Eur J Med Chem, 2012).

Legend:
Format in all cases: functional
BT-549 = assay: Cytotoxicity against human BT549 cells assessed as cell growth at 10 uM after 48 hrs by SRB assay relative to control; conditions: BT-549, 48 h, read-out: Activity
SF-295 = assay: Cytotoxicity against human SF295 cells assessed as cell growth at 10 uM after 48 hrs by SRB assay relative to control; conditions: SF-295, 48 h, read-out: Activity
[1] = Cytotoxicity against human Hs 578T cells assessed as cell growth at 10 uM after 48 hrs by SRB assay relative to control; conditions: read-out: Activity
A549 = assay: Cytotoxicity against human A549 cells assessed as cell growth at 10 uM after 48 hrs by SRB assay relative to control; conditions: A549, 48 h, read-out: Activity
UACC-257 = assay: Cytotoxicity against human UACC257 cells assessed as cell growth at 10 uM after 48 hrs by SRB assay relative to control; conditions: UACC-257, 48 h, read-out: Activity
SF-268 = assay: Cytotoxicity against human SF268 cells assessed as cell growth at 10 uM after 48 hrs by SRB assay relative to control; conditions: SF-268, 48 h, read-out: Activity
SK-MEL-2 = assay: Cytotoxicity against human SK-MEL-2 cells assessed as cell growth at 10 uM after 48 hrs by SRB assay relative to control; conditions: SK-MEL-2, 48 h, read-out: Activity
SK-MEL-28 = assay: Cytotoxicity against human SK-MEL-28 cells assessed as cell growth at 10 uM after 48 hrs by SRB assay relative to control; conditions: SK-MEL-28, 48 h, read-out: Activity
A498 = assay: Cytotoxicity against human A498 cells assessed as cell growth at 10 uM after 48 hrs by SRB assay relative to control; conditions: A498, 48 h, read-out: Activity
LOX IMVI = assay: Cytotoxicity against human LOXIMVI cells assessed as cell growth at 10 uM after 48 hrs by SRB assay relative to control; conditions: read-out: Activity
TK-10 = assay: Cytotoxicity against human TK10 cells assessed as cell growth at 10 uM after 48 hrs by SRB assay relative to control; conditions: TK-10, 48 h, read-out: Activity
UACC-62 = assay: Cytotoxicity against human UACC62 cells assessed as cell growth at 10 uM after 48 hrs by SRB assay relative to control; conditions: UACC-62, 48 h, read-out: Activity
DU-145 = assay: Cytotoxicity against human DU145 cells assessed as cell growth at 10 uM after 48 hrs by SRB assay relative to control; conditions: DU-145, 48 h, read-out: Activity
NCI-H226 = assay: Cytotoxicity against human NCI-H226 cells assessed as cell growth at 10 uM after 48 hrs by SRB assay relative to control; conditions: NCI-H226, 48 h, read-out: Activity
M14 = assay: Cytotoxicity against human M14 cells assessed as cell growth at 10 uM after 48 hrs by SRB assay relative to control; conditions: M14, 48 h, read-out: Activity
IGROV-1 = assay: Cytotoxicity against human IGROV1 cells assessed as cell growth at 10 uM after 48 hrs by SRB assay relative to control; conditions: IGROV-1, 48 h, read-out: Activity
HOP-62 = assay: Cytotoxicity against human HOP62 cells assessed as cell growth at 10 uM after 48 hrs by SRB assay relative to control; conditions: HOP-62, 48 h, read-out: Activity
OVCAR-8 = assay: Cytotoxicity against human OVCAR8 cells assessed as cell growth at 10 uM after 48 hrs by SRB assay relative to control; conditions: OVCAR-8, 48 h, read-out: Activity
SW-620 = assay: Cytotoxicity against human SW620 cells assessed as cell growth at 10 uM after 48 hrs by SRB assay relative to control; conditions: SW-620, 48 h, read-out: Activity
SNB-19 = assay: Cytotoxicity against human SNB19 cells assessed as cell growth at 10 uM after 48 hrs by SRB assay relative to control; conditions: SNB-19, 48 h, read-out: Activity
NCI/ADR-RES = assay: Cytotoxicity against human NCI/ADR-RES cells assessed as cell growth at 10 uM after 48 hrs by SRB assay relative to control; conditions: read-out: Activity
RXF 393 = assay: Cytotoxicity against human RXF393 cells assessed as cell growth at 10 uM after 48 hrs by SRB assay relative to control; conditions: RXF 393, 48 h, read-out: Activity
ACHN = assay: Cytotoxicity against human ACHN cells assessed as cell growth at 10 uM after 48 hrs by SRB assay relative to control; conditions: read-out: Activity
NCI-H23 = assay: Cytotoxicity against human NCI-H23 cells assessed as cell growth at 10 uM after 48 hrs by SRB assay relative to control; conditions: NCI-H23, 48 h, read-out: Activity
EKVX = assay: Cytotoxicity against human EKVX cells assessed as cell growth at 10 uM after 48 hrs by SRB assay relative to control; conditions: read-out: Activity
CAKI-1 = assay: Cytotoxicity against human Caki1 cells assessed as cell growth at 10 uM after 48 hrs by SRB assay relative to control; conditions: CAKI-1, 48 h, read-out: Activity
UO-31 = assay: Cytotoxicity against human UO31 cells assessed as cell growth at 10 uM after 48 hrs by SRB assay relative to control; conditions: UO-31, 48 h, read-out: Activity
RPMI-8226 = assay: Cytotoxicity against human RPMI8226 cells assessed as cell growth at 10 uM after 48 hrs by SRB assay relative to control; conditions: RPMI-8226, 48 h, read-out: Activity
T47D = assay: Cytotoxicity against human T47D cells assessed as cell growth at 10 uM after 48 hrs by SRB assay relative to control; conditions: read-out: Activity
MCF7 = assay: Cytotoxicity against human MCF7 cells assessed as cell growth at 10 uM after 48 hrs by SRB assay relative to control; conditions: MCF7, 48 h, read-out: Activity
SK-OV-3 = assay: Cytotoxicity against human SKOV3 cells assessed as cell growth at 10 uM after 48 hrs by SRB assay relative to control; conditions: SK-OV-3, 48 h, read-out: Activity
HCT-15 = assay: Cytotoxicity against human HCT15 cells assessed as cell growth at 10 uM after 48 hrs by SRB assay relative to control; conditions: HCT-15, 48 h, read-out: Activity
MDA-MB-435 = assay: Cytotoxicity against human MDA-MB-435 cells assessed cell growth at 10 uM after 48 hrs by SRB assay relative to control
Malme-3M = assay: Cytotoxicity against human MALME-3M cells assessed as cell growth at 10 uM after 48 hrs by SRB assay relative to control; conditions: read-out: Activity
HCT-116 = assay: Cytotoxicity against human HCT116 cells assessed as cell growth at 10 uM after 48 hrs by SRB assay relative to control; conditions: HCT-116, 48 h, read-out: Activity
K562 = assay: Cytotoxicity against human K562 cells assessed as cell growth at 10 uM after 48 hrs by SRB assay relative to control; conditions: K562, 48 h, read-out: Activity

## Cn1c2ccccc2c2c3nc(N)[nH]c(=O)c3c3c4ccccc4n(C)c3c21
BT-549
  growth at 10 µM: 76.6%
SF-295
  growth at 10 µM: 86.6%
[1]
  growth at 10 µM: 113%
A549
  growth at 10 µM: 58.5%
UACC-257
  growth at 10 µM: 79.7%
SF-268
  growth at 10 µM: 73.5%
SK-MEL-2
  growth at 10 µM: 32%
SK-MEL-28
  growth at 10 µM: 91%
A498
  growth at 10 µM: 114%
LOX IMVI
  growth at 10 µM: 60.9%
TK-10
  growth at 10 µM: 50.1%
UACC-62
  growth at 10 µM: 81.3%
DU-145
  growth at 10 µM: 44.9%
NCI-H226
  growth at 10 µM: 78.1%
M14
  growth at 10 µM: 34.9%
IGROV-1
  growth at 10 µM: 65.8%
HOP-62
  growth at 10 µM: 95.2%
OVCAR-8
  growth at 10 µM: 43.1%
SW-620
  growth at 10 µM: 31.6%
SNB-19
  growth at 10 µM: 122%
NCI/ADR-RES
  growth at 10 µM: 48.7%
RXF 393
  growth at 10 µM: 94%
ACHN
  growth at 10 µM: 29.5%
NCI-H23
  growth at 10 µM: 65.4%
EKVX
  growth at 10 µM: 73.5%
CAKI-1
  growth at 10 µM: -14.9%
UO-31
  growth at 10 µM: 7.16%
RPMI-8226
  growth at 10 µM: 61.4%
T47D
  growth at 10 µM: 75%
MCF7
  growth at 10 µM: 25%
SK-OV-3
  growth at 10 µM: 34.9%
HCT-15
  growth at 10 µM: 43.7%
MDA-MB-435
  Activity: 24.36%
Malme-3M
  growth at 10 µM: 36.2%
HCT-116
  growth at 10 µM: 34%
K562
  growth at 10 µM: 44.4%
